{"source": "patent US20040235012A1", "about": "“Method of detecting antibiotic resistance in microorganisms” (priority 2003, published 2004)", "key": {"S. aureus strains": {"system": "S. aureus strains", "assay": "E-Test MIC of oxacillin", "format": "cell-based", "settings": "Staphylococcus aureus"}, "[1]": {"system": "low-level resistant strains (MRSA)", "settings": "cited from earlier work"}}, "data": [{"compound": "Cc1onc(-c2ccccc2)c1C(=O)N[C@@H]1C(=O)N2[C@@H]1SC(C)(C)[C@@H]2C(=O)O", "note": "[OX, oxacillin]", "values": [{"measurement": "MIC", "setting": "S. aureus strains; strain 31 (mecA −, PBP2 −)", "result": 0.25, "unit": "mg/L"}, {"measurement": "MIC", "setting": "S. aureus strains; strain 34 (mecA +, PBP2 +)", "result": 16, "unit": "mg/L"}, {"measurement": "MIC", "setting": "S. aureus strains; strain 2325 (mecA −, PBP2 −)", "result": 0.19, "unit": "mg/L"}, {"measurement": "MIC", "setting": "S. aureus strains; strain 3421 (mecA +)", "result": "> 4", "unit": "mg/L"}, {"measurement": "MIC", "setting": "S. aureus strains; strain 3424 (mecA −, PBP2 −)", "result": 1.5, "unit": "mg/L"}, {"measurement": "MIC", "setting": "S. aureus strains; strain 3425 (mecA −, PBP2 −)", "result": 0.38, "unit": "mg/L"}, {"measurement": "MIC", "setting": "S. aureus strains; strain 5594 (mecA +, PBP2 +)", "result": 0.38, "unit": "mg/L"}, {"measurement": "MIC", "setting": "S. aureus strains; strain 5595 (mecA +, PBP2 +)", "result": 0.5, "unit": "mg/L"}, {"measurement": "MIC", "setting": "S. aureus strains; strain 5596 (mecA +, PBP2 +)", "result": 0.5, "unit": "mg/L"}, {"measurement": "MIC", "setting": "S. aureus strains; strain 5597 (mecA +, PBP2 +)", "result": 32, "unit": "mg/L"}, {"measurement": "MIC", "setting": "S. aureus strains; strain 5598 (mecA +, PBP2 +)", "result": 32, "unit": "mg/L"}, {"measurement": "MIC", "setting": "S. aureus strains; strain 5599 (mecA +, PBP2 +)", "result": 16, "unit": "mg/L"}, {"measurement": "MIC", "setting": "S. aureus strains; strain T775 (mecA +, PBP2 +)", "result": 8, "unit": "mg/L"}, {"measurement": "MIC", "setting": "S. aureus strains; strain T2109 (mecA +, PBP2 +)", "result": 32, "unit": "mg/L"}, {"measurement": "MIC", "setting": "S. aureus strains; strain T2110 (mecA +, PBP2 +)", "result": 8, "unit": "mg/L"}, {"measurement": "MIC", "setting": "S. aureus strains; strain T2130 (mecA +, PBP2 +)", "result": 32, "unit": "mg/L"}, {"measurement": "MIC", "setting": "S. aureus strains; strain T4031 (mecA +, PBP2 +)", "result": 6, "unit": "mg/L"}, {"measurement": "MIC", "setting": "S. aureus strains; strain T4033 (mecA +, PBP2 +)", "result": 1.5, "unit": "mg/L"}, {"measurement": "MIC", "setting": "S. aureus strains; strain T4035 (mecA +, PBP2 +)", "result": 8, "unit": "mg/L"}, {"measurement": "oxacillin MIC of low-level resistant strains, at or just above the susceptible breakpoint", "setting": "[1]", "result": "4 to 8", "unit": "mg/L"}]}]}
